# Test results from PubChem BioAssay (NCI).
#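 Step 1: Grow cells in 96-well plates. Step 2: Expose to compound for 48 hours at 5 concentrations. Step 3: Interpolate endpoints linearly; if unreached, use highest concentration. The concentration for full growth arrest is given as TGI.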
# Key:
# Assay in all cases: inhibition of tumour cell growth, NCI panel, 48 h
# 786-0 renal = tested on: 786-0 renal
# A549 NSCLC = tested on: A549 NSCLC
# ACHN renal = tested on: ACHN renal
# COLO 205 colon = tested on: COLO 205 colon
# DLD-1 colon = tested on: DLD-1 colon
# DMS 114 small cell lung = tested on: DMS 114 small cell lung
# DMS 273 small cell lung = tested on: DMS 273 small cell lung
# EKVX NSCLC = tested on: EKVX NSCLC
# HCC-2998 colon = tested on: HCC-2998 colon
# HCT-116 colon = tested on: HCT-116 colon
# HCT-15 colon = tested on: HCT-15 colon
# HOP-18 NSCLC = tested on: HOP-18 NSCLC
# HOP-62 NSCLC = tested on: HOP-62 NSCLC
# HOP-92 NSCLC = tested on: HOP-92 NSCLC
# HT29 colon = tested on: HT29 colon
# IGROV1 ovarian = tested on: IGROV1 ovarian
# KM12 colon = tested on: KM12 colon
# KM20L2 colon = tested on: KM20L2 colon
# LOX IMVI melanoma = tested on: LOX IMVI melanoma
# LXFL 529 NSCLC = tested on: LXFL 529 NSCLC
# M14 melanoma = tested on: M14 melanoma
# M19-MEL melanoma = tested on: M19-MEL melanoma
# MALME-3M melanoma = tested on: MALME-3M melanoma
# MOLT-4 leukemia = tested on: MOLT-4 leukemia
# NCI-H226 lung = tested on: NCI-H226 lung
# NCI-H23 lung = tested on: NCI-H23 lung
# NCI-H460 lung = tested on: NCI-H460 lung
# NCI-H522 lung = tested on: NCI-H522 lung
# OVCAR-3 ovarian = tested on: OVCAR-3 ovarian
# OVCAR-5 ovarian = tested on: OVCAR-5 ovarian
# OVCAR-8 ovarian = tested on: OVCAR-8 ovarian
# RPMI-8226 leukemia = tested on: RPMI-8226 leukemia
# RXF 393 renal = tested on: RXF 393 renal
# SF-268 CNS = tested on: SF-268 CNS
# SF-295 CNS = tested on: SF-295 CNS
# SF-539 CNS = tested on: SF-539 CNS
# SK-MEL-2 melanoma = tested on: SK-MEL-2 melanoma
# SK-MEL-28 melanoma = tested on: SK-MEL-28 melanoma
# SK-MEL-5 melanoma = tested on: SK-MEL-5 melanoma
# SK-OV-3 ovarian = tested on: SK-OV-3 ovarian
# SN12C renal = tested on: SN12C renal
# SNB-19 CNS = tested on: SNB-19 CNS
# SNB-75 CNS = tested on: SNB-75 CNS
# SNB-78 CNS = tested on: SNB-78 CNS
# SR leukemia = tested on: SR leukemia
# SW-620 colon = tested on: SW-620 colon
# TK-10 renal = tested on: TK-10 renal
# U251 CNS = tested on: U251 CNS
# UACC-257 melanoma = tested on: UACC-257 melanoma
# UACC-62 melanoma = tested on: UACC-62 melanoma
# UO-31 renal = tested on: UO-31 renal
# XF 498 CNS = tested on: XF 498 CNS
compound,measurement,setting,value
COc1ccc(-c2ccccc2)c(N/N=C2\CCCNC2=O)c1,TGI,786-0 renal,> 100 µM
same,TGI,A549 NSCLC,27 µM
same,TGI,ACHN renal,> 100 µM
same,TGI,COLO 205 colon,> 100 µM
same,TGI,DLD-1 colon,> 100 µM
same,TGI,DMS 114 small cell lung,> 100 µM
same,TGI,DMS 273 small cell lung,> 100 µM
same,TGI,EKVX NSCLC,> 100 µM
same,TGI,HCC-2998 colon,> 100 µM
same,TGI,HCT-116 colon,25.8 µM
same,TGI,HCT-15 colon,> 100 µM
same,TGI,HOP-18 NSCLC,> 100 µM
same,TGI,HOP-62 NSCLC,87.1 µM
same,TGI,HOP-92 NSCLC,> 100 µM
same,TGI,HT29 colon,> 100 µM
same,TGI,IGROV1 ovarian,> 100 µM
same,TGI,KM12 colon,> 100 µM
same,TGI,KM20L2 colon,> 100 µM
same,TGI,LOX IMVI melanoma,> 100 µM
same,TGI,LXFL 529 NSCLC,> 100 µM
same,TGI,M14 melanoma,> 100 µM
same,TGI,M19-MEL melanoma,> 100 µM
same,TGI,MALME-3M melanoma,> 100 µM
same,TGI,MOLT-4 leukemia,> 100 µM
same,TGI,NCI-H226 lung,> 100 µM
same,TGI,NCI-H23 lung,> 100 µM
same,TGI,NCI-H460 lung,> 100 µM
same,TGI,NCI-H522 lung,> 100 µM
same,TGI,OVCAR-3 ovarian,> 100 µM
same,TGI,OVCAR-5 ovarian,> 100 µM
same,TGI,OVCAR-8 ovarian,> 100 µM
same,TGI,RPMI-8226 leukemia,> 100 µM
same,TGI,RXF 393 renal,27.5 µM
same,TGI,SF-268 CNS,> 100 µM
same,TGI,SF-295 CNS,> 100 µM
same,TGI,SF-539 CNS,> 100 µM
same,TGI,SK-MEL-2 melanoma,> 100 µM
same,TGI,SK-MEL-28 melanoma,> 100 µM
same,TGI,SK-MEL-5 melanoma,> 100 µM
same,TGI,SK-OV-3 ovarian,> 100 µM
same,TGI,SN12C renal,> 100 µM
same,TGI,SNB-19 CNS,> 100 µM
same,TGI,SNB-75 CNS,> 100 µM
same,TGI,SNB-78 CNS,> 100 µM
same,TGI,SR leukemia,> 100 µM
same,TGI,SW-620 colon,> 100 µM
same,TGI,TK-10 renal,> 100 µM
same,TGI,U251 CNS,> 100 µM
same,TGI,UACC-257 melanoma,> 100 µM
same,TGI,UACC-62 melanoma,> 100 µM
same,TGI,UO-31 renal,> 100 µM
same,TGI,XF 498 CNS,87.7 µM
